What was measured:
[1] = tested on: TNFα production; assay: Inhibition of TNFα production in mice induced by LPS (in vivo); details: CD1 female mice, 1 mg/kg orally 60 min. prior to LPS 2 mg/kg i.p., blood TNFα 90 min. after LPS
Protocol: For the compounds of the present invention, the capacity to inhibit TNFα production induced by the administration of LPS was evaluated in mice.
A lethal quantity of LPS (E. coli 055:B5; 2 mg/kg) was administered to the animals (CD1 female mice) by an intraperitoneal route; 90 min. after administration, the animals were killed and the TNFα content present in the blood was determined by ELISA assay.
The compounds under test, suspended in Methyl Cellosolve (0.5% in water), were administered orally, 60 min. prior to the administration of LPS, at a dose of 1 mg/kg.
The results are given in the following table; the values are expressed as percentage inhibition of TNFα production in comparison with the control group.

[2] = tested on: human HEP-G2 hepatoma cell line; assay: Cytotoxicity in vitro on HEP-G2 cells (formazane colorimetric assay); type: cell-based; details: 48 h
Protocol: The cytotoxicity of some compounds described in the preceding examples was evaluated in vitro on the human HEP-G2 hepatoma cell line by a commercial colorimetric method (Cell Titer 96® Aqueous One Solution Cell Proliferation Assay—Promega); the method determines the number of living cells on the basis of their ability to metabolize a tetrazolium salt producing formazane. The quantity of formazane produced is proportional to the number of living cells.
The HPE-G2 cells were distributed in micro-plates with 96 wells at a density of 4×10^4 cells/well (100 μl) in M199 medium containing 10% of bovine foetal serum and supplements (complete medium).
After incubation for 24 h (37° C., 5% CO2, 90% humidity) the cells were washed once and the medium was replaced with 200 μl of complete medium containing the substances to be tested at final concentrations of 10^−5, 10^−6 and 10^−7 M. The test was performed in triplicate.
The plates were incubated for a further 48 h, after which 100 μl of medium was removed and 20 μl per well of dye solution was added in accordance with the supplier's instructions. The optical density (λ=490 nm) was read after incubation for 1 h at 37° C. with the use of a plate reader (Victor 2—Wallace Perkin Elmer).
The results are expressed as the percentage inhibition of the formation of formazane in comparison with the control.

[3] = molecular target: mouse HDAC-1 enzyme (Mus musculus, UniProt O09106); assay: Inhibition of the enzymatic activity of histone deacetylase; type: biochemical
Protocol: The capacity of the compounds of the invention to inhibit the activity of the histone deacetylase enzyme was evaluated with the use of the mouse HADC-1 enzyme. The assay was performed by the method already described in the literature [Biochem. Biophys. Acta, 1996, vol. 1296, p. 181]. The IC50 values (concentration which inhibits the activity of the enzyme by 50%) were derived from the percentages of inhibition obtained with various concentrations of the compound under test; these values are given in the following table.

[4] = Metabolic resistance in vitro, S9 liver fraction; type: in vitro ADME; details: 6 μg/ml, 37° C., phosphate buffer pH 7.4, S9 fraction protein content 2 mg/ml
Protocol: The metabolic resistance of some compounds described in the preceding examples was evaluated by incubating the substances with the S9 fraction of a microsomal preparation of liver cells. Each compound (6 μg/ml) was incubated at 37° C. for 30 min. in phosphate buffer (pH 7.4) containing the S9 fraction (protein content 2 mg/ml). The reaction was stopped by cooling in an ice bath and adding an equal volume of water/acetonitrile (50:50) containing 0.2% of trifluoroacetic acid. After centrifuging, an aliquot of the supernatant fluid was analyzed by HPLC to evaluate the percentage of product that had remained intact.

[5] = tested on: TNFα production in human monocytes stimulated with LPS; assay: Inhibition of TNFα production in human monocytes stimulated with LPS (in vitro); type: cell-based; details: Monocyte; human mononuclear peripheral blood cells, LPS 10 ng/ml, 24 hours, ELISA; average of at least two determinations
Protocol: The compounds were dissolved in DMSO to a final concentration of 120 mM and were stored at −80° C. The solutions for the test were prepared by diluting the mother solutions in RPMI 1640 with the addition of 1% FCS and 0.01% DMSO and were filtered with 0.2 μm filters.
Mononuclear peripheral blood cells were obtained from “buffy coats” of healthy donors by separation in a Ficoll-Hypaque gradient. The cells were spread in plates with 96 wells at a concentration of about 500,000 cells per well, suspended in RPMI 1640 containing 1% FCS and were incubated at 37° C. in the presence of various concentrations (from 10^−6 to 10^−11 M) of the compounds to be tested.
After 1 hour, LPS was added (to a final concentration of 10 ng/ml; obtained from E. coli 055:B5) and the plates were incubated at 37° C. for a further 24 hours. Upon completion, the supernatant fluids were collected and used for the determination of the TNFα content by ELISA (ELISA Duoset Kit; R&D systems, Minneapolis, Minn., USA).
The concentration of TNFα was calculated with the use of a calibration curve and the IC50 values (concentration which inhibits the production of the cytokine by 50%) were calculated from the curve obtained, giving the percentage inhibition values for each individual concentration of the compound under test.
The values obtained for the compounds described in the preceding examples are given in the following table (the values are the average of the results obtained in at least two determinations, performed with cells of different donors).

Chain of mouse HDAC-1 enzyme (O09106 whole entry): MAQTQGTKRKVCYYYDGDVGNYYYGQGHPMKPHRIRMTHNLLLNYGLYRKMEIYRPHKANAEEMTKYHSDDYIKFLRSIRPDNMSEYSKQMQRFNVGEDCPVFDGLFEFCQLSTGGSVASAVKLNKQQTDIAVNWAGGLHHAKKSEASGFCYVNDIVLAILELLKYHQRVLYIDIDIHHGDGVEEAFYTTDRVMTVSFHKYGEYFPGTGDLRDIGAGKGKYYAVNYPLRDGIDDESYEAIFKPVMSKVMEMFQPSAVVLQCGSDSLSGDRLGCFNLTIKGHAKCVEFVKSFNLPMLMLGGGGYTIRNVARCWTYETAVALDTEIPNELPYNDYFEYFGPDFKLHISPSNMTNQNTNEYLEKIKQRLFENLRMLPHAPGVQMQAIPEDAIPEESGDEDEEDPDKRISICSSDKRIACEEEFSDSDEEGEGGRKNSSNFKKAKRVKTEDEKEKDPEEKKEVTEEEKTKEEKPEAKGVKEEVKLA

SMILES	Inhibition of TNFα production in comparison with the control group [1]	Cytotoxicity at 10^−6 M (percentage inhibition of the formation of formazane) [2]	IC50 [3]	Residual product after 30 min. [4]	IC50 [5]
O=C(Cc1ccc(C(F)(F)F)cc1)Nc1ccc(C(=O)NO)cc1 [Ex. 01, N-hydroxy-4-[2-(4-trifluoromethyl-phenyl)-acetylamino]-benzamide]	67%	3.8%	0.142 µM	78.9%	0.0145 µM
CC(CC(=O)Nc1ccc(C(=O)NO)cc1)c1ccccc1 (stereo not drawn) [Ex. 02, N-hydroxy-4-(3-phenyl-butyrylamino)-benzamide]					0.076 µM
COc1cccc(CCC(=O)Nc2ccc(C(=O)NO)cc2)c1 [Ex. 03, N-hydroxy-4-[3-(3-methoxy-phenyl)-propionylamino]-benzamide]	56%	7.3%	0.219 µM	60.7%	0.026 µM
COc1ccc(CC(=O)Nc2ccc(C(=O)NO)cc2)cc1 [Ex. 04, N-hydroxy-4-[2-(4-methoxy-phenyl)-acetylamino]-benzamide]	42%	0%	0.113 µM	90.2%	0.0515 µM
CCOc1ccc(CC(=O)Nc2ccc(C(=O)NO)cc2)cc1 [Ex. 05, N-hydroxy-4-[2-(4-ethoxy-phenyl)-acetylamino]-benzamide]		0%	0.09 µM	89.0%	0.032 µM
O=C(CCc1cc(C(F)(F)F)cc(C(F)(F)F)c1)Nc1ccc(C(=O)NO)cc1 [Ex. 06, N-hydroxy-4-[3-(3,5-bis-trifluoromethyl-phenyl)-propionyl-amino]-benzamide]		13%	0.019 µM	68.4%	0.017 µM
COc1cc(CC(=O)Nc2ccc(C(=O)NO)cc2)cc(OC)c1OC [Ex. 07, N-hydroxy-4-[2-(3,4,5-trimethoxy-phenyl)-acetylamino]-benzamide]			0.014 µM		0.045 µM
CSc1ccc(CC(=O)Nc2ccc(C(=O)NO)cc2)cc1 [Ex. 08, N-hydroxy-4-[2-(4-methylsulphanil-phenyl)-acetylamino]-benzamide]			0.058 µM		0.32 µM
O=C(Cc1cccc(C(F)(F)F)c1)Nc1ccc(C(=O)NO)cc1 [Ex. 09, N-hydroxy-4-[2-(3-trifluoromethyl-phenyl)-acetylamino]-benzamide]			0.067 µM		0.07 µM
O=C(Cc1cccc([N+](=O)[O-])c1)Nc1ccc(C(=O)NO)cc1 [Ex. 10, N-hydroxy-4-[2-(3-nitro-phenyl)-acetylamino]-benzamide]			0.13 µM		0.134 µM
O=C(Cc1cccc(Oc2ccccc2)c1)Nc1ccc(C(=O)NO)cc1 [Ex. 11, N-hydroxy-4-[2-(3-phenoxy-phenyl)-acetylamino]-benzamide]			0.102 µM		0.108 µM
O=C(Cc1ccc(-c2ccccc2)cc1)Nc1ccc(C(=O)NO)cc1 [Ex. 12, N-hydroxy-4-[2-(diphenyl-4-yl)-acteylamino]-benzamide]			0.007 µM		0.227 µM
COc1cccc(CC(=O)Nc2ccc(C(=O)NO)cc2)c1OC [Ex. 13, N-hydroxy-4-[2-(2,3-dimethoxy-phenyl)-acetylamino]-benzamide]			0.202 µM		0.187 µM
O=C(CCc1ccccc1OC(=O)c1ccccc1)Nc1ccc(C(=O)NO)cc1 [Ex. 14, 2-[2-(4-hydroxycarbamoyl-phenylcarbamoyl)-ethyl]-phenyl ester of benzoic acid]			0.106 µM		0.157 µM
O=C(Cc1ccc([N+](=O)[O-])cc1)Nc1ccc(C(=O)NO)cc1 [Ex. 15, N-hydroxy-4-[2-(4-nitro-phenyl)-acteylamino]-benzamide]		0%	0.146 µM		0.027 µM
O=C(Cc1ccccc1Oc1ccccc1)Nc1ccc(C(=O)NO)cc1 [Ex. 16, N-hydroxy-4-[2-(2-phenoxy-phenyl)-acetylamino]-benzamide]			0.118 µM		0.259 µM
COc1cc(CC(=O)Nc2ccc(C(=O)NO)cc2)c([N+](=O)[O-])cc1OC [Ex. 17, N-hydroxy-4-[2-(4,5-dimethoxy-2-nitro-phenyl)-acetylamino]-benzamide]			0.255 µM		0.28 µM
O=C(Cc1ccccc1OCc1ccccc1)Nc1ccc(C(=O)NO)cc1 [Ex. 18, N-hydroxy-4-[2-(2-benzyloxy-phenyl)-acetylamino]-benzamide]			0.112 µM		0.391 µM
O=C(Cc1ccccc1[N+](=O)[O-])Nc1ccc(C(=O)NO)cc1 [Ex. 19, N-hydroxy-4-[2-(2-nitro-phenyl)-acetylamino]-benzamide]			0.214 µM		1 µM

Reference: patent publication US7235689B2, “Hydroxamic acid derivatives having anti-inflammatory action” (Italfarmaco SpA, priority 2003, dated 2007)
